The text below walks through data of patent US20170258770A1, “Method for Topically Treating Actinic Keratosis on the Full Face or 250 cm2 on the Chest with Ingenol 3-(3,5-diethylisoxazole-4-carboxylate)” (LEO Laboratories Limited, priority 2014, published 2017).

Data set [1] deals with dermal tumours. The data set is described as follows: in vivo studies in mice, effects on dermal tumours. The conditions noted are these: compared with ingenol mebutate. The source says: The exact mechanism of action of ingenol 3-(3,5-diethylisoxazole-4-carboxylate) continues to be investigated, but it is believed that ingenol 3-(3,5-diethylisoxazole-4-carboxylate) has a dual mechanism of action inducing cell death as well as stimulation of immune response.

The test system of data set [2] is actinic keratosis. The data set is described as follows: Part 1 dose escalation trial, once daily for two consecutive days, face/chest, actinic keratosis. The format is in vivo, human subjects. The source says: Local skin reactions (LSRs) occur sometimes in the treated area. Often LSRs are quantified by a scale evaluating the following types of skin reactions: erythema, flaking/scaling, crusting, swelling, vasiculation/postulation, and erosion/ulceration which are categorized into categories 0-4 depending on the severity of the reactions.
In the trial pre-defined grades of LSRs will constitute Dose Limiting Toxicity.
Dose Limiting toxicity (DLT) is defined one or more of the following LSRs • crusting Grade 4 • Erosion/ulceration Grade 4 • vesiculation/postulation Grade 4 or
Two or more of the following five LSRs: • Erythema Grade 4 • Crusting Grade 3 • Swelling grade 4 • Erosion/ulceration Grade 3 • vesiculation/postulation Grade 3 or • other clinically relevant signs or symptoms observed, which the Investigator judges to be counted as a DLT.
Maximum tolerated dose (MTD) is declared as dose level at which less than 4 subjects out of experience a DLT of cohort of 12 subjects.
Part 1 was a dose escalation study conducted with a once daily application of trial medication for two consecutive days and continued until the MTD was identified.
Dose escalation proceeded if the safety and tolerability data of the subject up to day 8 was reviewed and considered satisfactory. The treatment consisted of once daily treatment for 2 consecutive days. Up to 5 different doses may be investigated in cohorts of 1 subject. The number of subjects in each cohort depended on the number of observed DLTs. However, the MTD was always be confirmed in a cohort of 12 subjects.
To be included in the trial, Part 1, the subjects must be at least 18 years of age.
Subjects who qualify for Part 1 of the trial must have 5 to 20 actinic keratosis on the face or chest. To be included in the trial part 2 the subjects must have 5-20 clinically typical, visible and discrete actinic keratosis on the face or chest
Part 1: Trial medication, ingenol 3-(3,5-diethylisoxazole-4-carboxylate) gel, will be applied to the treatment area once daily for two consecutive days until the maximum tolerated dose has been reached for each formulation. Up to five different doses of active compound in gel may be investigated in cohorts 12 subjects. Predefined grades of Local Skin Responses (LSRs) will constitute dose limiting toxicity (DLT). The maximum tolerated dose is defined as the highest dose level at which less than 4 out of 12 subjects experience a Dose limiting toxicity.
The doses will be administered in an escalating manner following review of safety and tolerability data performed by the dose escalation committee. Evaluation of the safety and tolerability data will be performed after Visit 5/day 8. Then subjects will be followed for 8 weeks after first application of investigational product.

Data set [3] concerns actinic keratosis. The data set can be described thus: Part 2 open-label trial, 0.018% gel once daily for three consecutive days, full face or 250 cm^2 chest, actinic keratosis. The format is in vivo, human subjects. The following applies: 3 consecutive days. The method, then:
Part 2 is a study of the efficacy of the 0.018% dose identified in part 1 in a three day regimen.
In contrast to other similar trials conducted, this trial allows inclusion in the trial of hypertrophic and hyperkeratotic lesion, and separately, the efficacy for these lesions are evaluated.
The outcome for Part 2 is safety and efficacy in a once daily application for three consecutive days on the face/chest. The efficacy in treating of the AK will be measured as reduction in AK count in the treated area of lesions which are not considered hyperkeratotic/hypertrophic.
The reduction in AK count will be performed at week 4 and 8 no matter the type of lesion. Also complete clearance of AKs in the treated area which are not considered hyperkeratotic/hypertrophic at week 8 will be measured.
The trial medication applied is preferably a gel. The gel formulation comprises: isopropyl alcohol, hydroxyethyl cellulose, benzyl alcohol, citric acid monohydrate, sodium citrate dehydrate and water and active compound in a 0.018% concentration. For this particular trial, the dosing is two unit dose tubes daily, each containing 0.67 g.
To qualify for part 2 of the trial, the subjects must have 5-20 clinically visible and discrete AKs within full face or 250 cm^2 area on the chest. In addition to the requirement of 5-20 clinically typical, visible and discrete AKs within the selected treatment area, subjects may also have visible and discrete hyperkeratotic/hypertrophic lesions in this area. The subjects will be treated with a dose of 0.018% as a once daily three consecutive days treatment and followed for 8 weeks.
The trial consists of an initial part, where 18 subjects will be treated on face/chest. […] As this is a safety trial, it is considered justified to conduct this clinical trial as an open-label, uncontrolled trial. An early safety and tolerability evaluation will be performed following the 3 days treatment. If safety and tolerability is found acceptable by the Early Data Review Committee, and additional 44 subjects will be enrolled in order to expand safety observations and obtain an estimate of treatment efficacy.
The patients are scheduled for 7 visits: • Visit 1: within 21 days prior to day 1 • Visit 2: day 1 (application of trial medication) • Visit 3: day 4 (application of trial medication) • Visit 4: day 8 (±2 day) • Visit 5: week 2 (±2 day) • Visit 6: week 4 (±4 day) • Visit 7: week 8 (±7 day)
LSRs are evaluated at all visits following visit 1.
LSRs are evaluated at all visits following visit 1. AK lesion counts are performed on Visit 2, 6 and 7.
At Baseline (Day 1) and Visit 7 (Week 8), the investigator will make a clinical (visual and tactile) assessment of the extent of photo-damage in the treatment area with respect to 1) fine wrinkling, 2) coarse wrinkling, 3) mottled pigmentation, 4) roughness, 5) sallowness, 6) skin laxity, and 7) telangiectasia. Severity for each of these characteristics will be on a 5-point scale: None (0), Mild (1), Moderate (2), Severe (3), Extreme (4).
At Visit 7 (Week 8) the Investigator will make an overall clinical (visual and tactile) assessment of the subject's photo-damage change from baseline in the treatment area (including an integrated assessment of fine wrinkling, coarse wrinkling, mottled pigmentation, roughness, sallowness, skin laxity, and telangiectasia based on the subject's appearance at the baseline visit).
The scoring will be on a 7-point symmetric scale: Marked improvement (+3), Moderate improvement (+2), Minor improvement (+1), No change (0), Minor worsening (−1), Moderate worsening (−2), Marked worsening (−3).
At Visit 7 (Week 8), the subjects will complete a self-assessment questionnaire evaluating the change in the 1) overall appearance of the skin and 2) overall feel of the skin after treatment. The scoring will be on a 5-point scale: Much worsened, Somewhat worsened, No change, somewhat improved, much improved. […]

The mark [4] stands for this setting: at 0.018% dose, two day regimen.

For `CCc1noc(CC)c1C(=O)O[C@H]1C(C)=C[C@]23C(=O)[C@@H](C=C(CO)[C@@H](O)[C@]12O)[C@H]1[C@@H](C[C@H]3C)C1(C)C` [ingenol 3-(3,5-diethylisoxazole-4-carboxylate)], in data set [1], the “efficacy in eliminating dermal tumours” value was “more efficacious than ingenol mebutate”. Besides, in data set [2] (setting [4]), the “application site adverse events” value was “minimal” and the “local skin reactions (LSRs)” value is on record as “mild”. For the same compound, the “maximum tolerated dose (MTD)” value in data set [2] (gel, once daily for 2 consecutive days, face/chest, MTD = highest dose with DLT in less than 4 of 12 subjects) is listed as 0.018%. Besides, in data set [2] (selected dose 0.018%, two days dosing regimen), the “tolerability with respect to LSRs and application site reaction” value is “well tolerated”. Moreover, in data set [3], the “cosmetic outcome of the treatment” value is on record as “good” and the side-effects entry is recorded as “acceptable”. In data set [3] (cosmetic outcome self-assessment), the “subjects reporting improvement in appearance and feel” value is listed as “more than 90%”. The “patients with photo damage improved” value in data set [3] (investigator assessment, fraction of patients) is listed as “two-thirds”. In data set [3] (rapid decline thereafter), the “time at which side-effects maximize” value is 4 days. Also, in data set [3] (week 4, 63 patients), the complete clearance was 37% and the “reduction in AK count” value was determined as 81%. In data set [3] (week 8 (the same as week 4)), the complete clearance was 37% and the “reduction in AK count” value worked out at 81%.
